Measured values: US10183021B2, “sGC stimulators” (Ironwood Pharmaceuticals, Inc., priority 2013, dated 2019)

Key:
[1] = target: T1, soluble guanylate cyclase (sGC) (Homo sapiens (Human), UniProt Q02108+Q02153); test: sGC-HEK-cGMP assay with SNP incubation, LC/MS detection (Example 2A); assay type: cell-based; conditions: HEK293 cells, 10 μM SNP, LC/MS detection; for Emax: 100% = BAY 41-2272 at 10 μM, read-out: HEK assay Emax - unconstrained (%)
Outline: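 HEK293 cells with endogenous sGC were pretreated 15 min at 37 °C with 0.5 mM IBMX, then exposed 10 min at 37 °C to compound (added from 0.0001–30 μM solutions) plus SNP (from 10 μM solution). After 0.1 M HCl lysis, cGMP was quantified by LC/MS against a standard curve.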

[2] = target: T1, soluble guanylate cyclase (sGC); test: sGC-HEK-cGMP assay, new protocol with DETA-NONOate, LC/MS detection (Example 2C); assay type: cell-based; conditions: read-out: Absolute EC50 (uM) - binned
[3] = top of curve fitted to 100%, read-out: HEK assay EC50 - constrained
[4] = top of curve not fitted to 100%, read-out: HEK assay EC50 - unconstrained

T1 sequence (Q02153 whole entry): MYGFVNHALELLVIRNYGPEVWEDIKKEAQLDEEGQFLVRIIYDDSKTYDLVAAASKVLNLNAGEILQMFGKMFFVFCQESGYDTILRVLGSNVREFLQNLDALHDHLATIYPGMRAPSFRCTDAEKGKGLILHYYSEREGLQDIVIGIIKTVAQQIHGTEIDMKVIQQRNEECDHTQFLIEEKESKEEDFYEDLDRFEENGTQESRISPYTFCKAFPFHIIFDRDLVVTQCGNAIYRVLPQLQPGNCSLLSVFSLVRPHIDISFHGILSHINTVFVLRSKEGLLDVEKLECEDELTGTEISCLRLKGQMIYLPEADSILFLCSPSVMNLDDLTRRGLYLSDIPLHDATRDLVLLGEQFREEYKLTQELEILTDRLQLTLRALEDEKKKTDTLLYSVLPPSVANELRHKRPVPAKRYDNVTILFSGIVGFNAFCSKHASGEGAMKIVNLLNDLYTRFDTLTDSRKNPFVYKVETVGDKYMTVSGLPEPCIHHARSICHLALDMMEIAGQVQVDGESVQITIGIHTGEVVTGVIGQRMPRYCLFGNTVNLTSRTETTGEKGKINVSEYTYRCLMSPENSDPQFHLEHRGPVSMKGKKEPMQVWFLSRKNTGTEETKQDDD
T1 sequence (Q02108 whole entry): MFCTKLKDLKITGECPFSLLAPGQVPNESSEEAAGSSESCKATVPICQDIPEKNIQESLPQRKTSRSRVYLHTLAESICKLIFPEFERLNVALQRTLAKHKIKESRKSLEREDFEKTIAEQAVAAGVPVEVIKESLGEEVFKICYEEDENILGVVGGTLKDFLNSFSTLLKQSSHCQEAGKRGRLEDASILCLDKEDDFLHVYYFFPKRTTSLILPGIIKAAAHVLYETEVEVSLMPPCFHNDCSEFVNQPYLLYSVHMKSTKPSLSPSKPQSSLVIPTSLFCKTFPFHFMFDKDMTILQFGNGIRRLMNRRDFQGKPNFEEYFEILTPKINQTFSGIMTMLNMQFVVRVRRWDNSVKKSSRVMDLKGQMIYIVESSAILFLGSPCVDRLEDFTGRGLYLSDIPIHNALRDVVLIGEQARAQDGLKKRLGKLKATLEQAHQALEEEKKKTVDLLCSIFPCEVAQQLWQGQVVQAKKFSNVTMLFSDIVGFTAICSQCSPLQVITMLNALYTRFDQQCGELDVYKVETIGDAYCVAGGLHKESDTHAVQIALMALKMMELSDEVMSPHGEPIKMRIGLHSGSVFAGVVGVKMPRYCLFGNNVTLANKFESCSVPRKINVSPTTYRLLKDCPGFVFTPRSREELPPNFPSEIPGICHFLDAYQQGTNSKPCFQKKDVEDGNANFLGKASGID

Structure (SMILES) | EC50 [1, 3] | EC50 [2] | Emax [1] | EC50 [1, 4]
O=C(O)C1c2ccccc2CN1c1nc(-c2cc(-c3ccon3)n(Cc3ccccc3F)n2)ncc1F (stereo not drawn) [Compound I-149] | > 10 µM | > 1 µM |  | 
CC(C)C[C@H](Nc1nc(-c2cc(-c3ccon3)n(Cc3ccccc3F)n2)ncc1F)C(=O)O [Compound I-88] |  | 0.101 to 1 µM | 60 to 80% | 1 to 5 µM
O=C(O)CCCNc1nc(-c2cc(-c3ccon3)n(Cc3ccccc3F)n2)ncc1F [Compound I-214] |  | < 0.1 µM | > 120% | 0.1 to 0.5 µM
CC1CCCN1c1nc(-c2cc(-c3ccon3)n(Cc3ccccc3F)n2)ncc1F (stereo not drawn) [Compound I-11] | 0.5 to 1 µM | 0.101 to 1 µM |  | 
O=C(O)C1c2[nH]cnc2CCN1c1nc(-c2cc(-c3ccon3)n(Cc3ccccc3F)n2)ncc1F (stereo not drawn) [Compound I-163] | > 10 µM | > 1 µM |  | 
CN(CCS(N)(=O)=O)c1nc(-c2cc(-c3ccon3)n(Cc3ccccc3F)n2)ncc1F [Compound I-374] |  | < 0.1 µM | 100 to 120% | 0.1 to 0.5 µM
CN(c1nc(-c2cc(-c3ccon3)n(Cc3ccccc3F)n2)ncc1F)[C@H](C(=O)O)C1CC1 [Compound I-239] |  | < 0.1 µM | 60 to 80% | 0.001 to 0.1 µM
O=C(O)CC1(Nc2nc(-c3cc(-c4ccon4)n(Cc4ccccc4F)n3)ncc2F)CCOCC1 [Compound I-245] | 0.1 to 0.5 µM | 0.101 to 1 µM |  | 
O=C(O)[C@@H](Cc1cc2ccccc2[nH]1)Nc1nc(-c2cc(-c3ccon3)n(Cc3ccccc3F)n2)ncc1F [Compound I-108] | 5 to 10 µM | 0.101 to 1 µM |  | 
C[C@H]1CCCN(c2nc(-c3cc(-c4ccon4)n(Cc4cccc(F)c4F)n3)ncc2F)[C@H]1C(=O)O [Compound I-305] |  | < 0.1 µM | 0 to 10% | > 10 µM
O=C(O)[C@@H]1CCc2ccccc2[C@@H]1Nc1nc(-c2cc(-c3ccon3)n(Cc3ccccc3F)n2)ncc1F [Compound I-369] |  | < 0.1 µM | 60 to 80% | 0.001 to 0.1 µM
O=C(O)[C@@H]1CCCC[C@H]1Nc1nc(-c2cc(-c3ccon3)n(Cc3ccccc3F)n2)ncc1F [Compound I-198] |  | < 0.1 µM | 40 to 60% | 0.001 to 0.1 µM
Fc1ccccc1Cn1nc(-c2nccc(N3CCOCC3)n2)cc1-c1ccon1 [Compound I-24] |  | < 0.1 µM | 40 to 60% | 0.1 to 0.5 µM
O=C1CN(c2nc(-c3cc(-c4ccon4)n(Cc4ccccc4F)n3)ncc2F)CCN1 [Compound I-59] | > 10 µM | 0.101 to 1 µM |  | 
CN(Cc1nc(C(=O)O)co1)c1nc(-c2cc(-c3ccon3)n(Cc3ccccc3F)n2)ncc1F [Compound I-375] |  | > 1 µM | 100 to 120% | 0.1 to 0.5 µM
O=C(O)[C@H]1C[C@@H](C(F)(F)F)CCN1c1nc(-c2cc(-c3ccon3)n(Cc3ccccc3F)n2)ncc1F (racemic) [Compound I-452] |  | < 0.1 µM | 80 to 100% | 0.1 to 0.5 µM
CN(c1nc(-c2cc(-c3ccon3)n(Cc3ccccc3F)n2)ncc1F)C12CC(C(=O)O)(C1)C2 [Compound I-307] |  | 0.101 to 1 µM | 100 to 120% | 1 to 5 µM
O=C(O)[C@@H]1[C@H]2CC[C@H](C2)N1c1nc(-c2cc(-c3ccon3)n(Cc3ccccc3F)n2)ncc1F [Compound I-365] |  | 0.101 to 1 µM | 80 to 100% | 1 to 5 µM
O=C(O)C1CN(c2nc(-c3cc(-c4ccon4)n(Cc4ccccc4F)n3)ncc2F)C1 [Compound I-53] | 1 to 5 µM | 0.101 to 1 µM |  | 
COC(=O)N1CCN(c2nc(-c3cc(-c4ccon4)n(Cc4ccccc4F)n3)ncc2F)C(C(=O)O)C1 (stereo not drawn) [Compound I-135] | > 10 µM | > 1 µM |  | 
O=C(O)[C@H](Cc1ccc(O)cc1)Nc1nc(-c2cc(-c3ccon3)n(Cc3ccccc3F)n2)ncc1F [Compound I-159] | > 10 µM | > 1 µM |  | 
O=C(O)[C@@H]1Cc2ccccc2N1c1nc(-c2cc(-c3ccon3)n(Cc3ccccc3F)n2)ncc1F [Compound I-90] |  | > 1 µM | 40 to 60% | 5 to 10 µM
COC1CCCN(c2nc(-c3cc(-c4ccon4)n(Cc4ccccc4F)n3)ncc2F)C1 (stereo not drawn) [Compound I-19] | 1 to 5 µM | < 0.1 µM |  | 
Fc1ccccc1Cn1nc(-c2ncc(F)c(N3CCc4ccccc4C3)n2)cc1-c1ccon1 [Compound I-111] | > 10 µM | < 0.1 µM |  | 
CN(CCS(=O)(=O)O)c1nc(-c2cc(-c3ccon3)n(Cc3ccccc3F)n2)ncc1F [Compound I-368] |  | > 1 µM | 20 to 40% | 0.1 to 0.5 µM
O=C(O)C1(Nc2nc(-c3cc(-c4ccon4)n(Cc4ccccc4F)n3)ncc2F)CC1 [Compound I-85] | > 10 µM | > 1 µM |  | 
CC(C)[C@H](C(=O)O)N(C)c1nc(-c2cc(-c3ccon3)n(Cc3ccccc3F)n2)ncc1F [Compound I-219] |  | < 0.1 µM | 20 to 40% | > 10 µM
